According to the supplement of paper PMC13380429:
± gives the standard deviation of the averaged measurements.

What was measured:
Conditions in all cases: 72 h
[1] = system: HepG2; assay: drug sensitivity score (DSS) for viability; higher = more toxic; extreme values may be limits of the assay
[2] = system: Vero E6; assay: as above
[3] = system: Calu-3; assay: as above
[4] = system: U2OS; assay: as above
[5] = system: Caco-2; assay: as above
[6] = system: HepG2; assay: cell viability relative to DMSO; higher = less toxic
[7] = system: Vero E6; assay: as above
[8] = system: Calu-3; assay: as above
[9] = system: U2OS; assay: as above
[10] = system: Caco-2; assay: as above
[11] = system: HepG2; assay: relative viability EC50 (midpoint between 100% and the lowest measured viability); higher = less toxic
[12] = system: Vero E6; assay: as above
[13] = system: Calu-3; assay: as above
[14] = system: U2OS; assay: as above
[15] = system: Caco-2; assay: as above

| Compound | drug sensitivity score [1] | drug sensitivity score [2] | drug sensitivity score [3] | drug sensitivity score [4] | drug sensitivity score [5] | cell viability ([6]; 1 nM) [%] | cell viability ([6]; 10 nM) [%] | cell viability ([6]; 100 nM) [%] | cell viability ([6]; 1000 nM) [%] | cell viability ([6]; 10000 nM) [%] | cell viability ([7]; 1 nM) [%] | cell viability ([7]; 10 nM) [%] | cell viability ([7]; 100 nM) [%] | cell viability ([7]; 1000 nM) [%] | cell viability ([7]; 10000 nM) [%] | cell viability ([8]; 1 nM) [%] | cell viability ([8]; 10 nM) [%] | cell viability ([8]; 100 nM) [%] | cell viability ([8]; 1000 nM) [%] | cell viability ([8]; 10000 nM) [%] | cell viability ([9]; 1 nM) [%] | cell viability ([9]; 10 nM) [%] | cell viability ([9]; 100 nM) [%] | cell viability ([9]; 1000 nM) [%] | cell viability ([9]; 10000 nM) [%] | cell viability ([10]; 1 nM) [%] | cell viability ([10]; 10 nM) [%] | cell viability ([10]; 100 nM) [%] | cell viability ([10]; 1000 nM) [%] | cell viability ([10]; 10000 nM) [%] | relative viability EC50 [11] [µM] | relative viability EC50 [12] [µM] | relative viability EC50 [13] [µM] | relative viability EC50 [14] [µM] | relative viability EC50 [15] [µM] |
| --- | --- | --- | --- | --- | --- | --- | --- | --- | --- | --- | --- | --- | --- | --- | --- | --- | --- | --- | --- | --- | --- | --- | --- | --- | --- | --- | --- | --- | --- | --- | --- | --- | --- | --- | --- |
| Cc1cc(Cl)ccc1OCCCC(=O)NO [droxinostat] | 0 | 0.3 | 0 | 0.6 | 0.1 | 100 | 92.4 | 90.7 | 97.4 | 87 | 103 | 99.4 | 98.8 | 97 | 86.7 | 96.3 | 92.8 | 88.8 | 97.6 | 86.8 | 96.9 | 106 | 96.6 | 100 | 79.5 | 104 | 101 | 101 | 102 | 86.5 | > 10 | > 10 | > 10 | > 10 | > 10 |
| Nc1nc(OCc2cc(Br)cs2)c2[nH]cnc2n1 [lomeguatrib] | 0 | 0 | 0 | 0 | 0 | 87.7 | 99.9 | 84 | 98.8 | 100 | 105 | 104 | 95.4 | 102 | 99.9 | 106 | 103 | 95.8 | 102 | 93 | 101 | 94.6 | 106 | 100 | 99.7 | 96.9 | 90.9 | 110 | 96.1 | 100 | > 10 | > 10 | > 10 | > 10 | > 10 |
| CCOC(=O)c1ccccc1OC(=O)CCCCCCCC(=O)Oc1ccccc1C(=O)OCC [TU-2100] | 0 | 0 | 0 | 0 | 0 | 97.9 | 104 | 106 | 96.7 | 98.9 | 95.5 | 101 | 102 | 101 | 99.9 | 94.1 | 104 | 92.3 | 95.7 | 108 | 102 | 100 | 97.3 | 99.6 | 99.3 | 97.9 | 101 | 92.1 | 95.6 | 100 | > 10 | > 10 | > 10 | > 10 | > 10 |
| CCN(CC)CCNC(=O)c1ccc(I)cc1 [I-BZA] | 0 | 0 | 0 | 0 | 0 | 93.9 | 101 | 98.9 | 102 | 93.1 | 91.3 | 104 | 95 | 101 | 94.8 | 93.3 | 101 | 96.3 | 105 | 114 | 99.7 | 94.7 | 98.5 | 95.8 | 101 | 96.9 | 95.9 | 104 | 106 | 104 | > 10 | > 10 | > 10 | > 10 | > 10 |
| O=C(NC1CCNCC1)c1n[nH]cc1NC(=O)c1c(Cl)cccc1Cl [AT-7519] | 14 | 0 | 5.9 | 5.2 | 3.3 | 111 | 99.4 | 108 | 22.5 | 9.6 | 99.6 | 102 | 102 | 99.6 | 96.6 | 100 | 99 | 95.9 | 83.9 | 37.5 | 103 | 97.6 | 100 | 100 | 7 | 91.4 | 93.2 | 94.2 | 104 | 33.5 | 0.509 | > 10 | 1.53 | 3.19 | 3.46 |
| COc1cc(N)c(Cl)cc1C(=O)CCC1CCN(CCNS(C)(=O)=O)CC1 | 0.3 | 0 | 0 | 0 | 0 | 100 | 100 | 98.2 | 89 | 95.5 | 99.7 | 101 | 100 | 93.9 | 98.3 | 99.6 | 92.6 | 88.3 | 99.1 | 95.9 | 92.6 | 101 | 94.2 | 99.2 | 92.6 | 95.1 | 97.3 | 95.5 | 92.3 | 92.3 | > 10 | > 10 | > 10 | > 10 | > 10 |
| CCC[C@H](NC(=O)/C(C#N)=C/c1cccc(Br)n1)c1ccccc1 [WP1130] | 5.5 | 5.7 | 4 | 6.3 | 5.5 | 99.8 | 105 | 101 | 100 | 0.8 | 101 | 100 | 100 | 97.6 | 3.5 | 100 | 97.1 | 90.7 | 118 | 10.8 | 95.7 | 108 | 97.5 | 94.6 | 0.9 | 106 | 103 | 93.2 | 93 | 21.3 | 3.18 | 2.98 | 3.94 | 2.74 | 2.43 |
| O=C(CO)[C@@H](O)[C@@H](O)[C@H](O)CO [tagatose] | 0 | 0 | 0 | 0 | 0 | 101 | 91.6 | 97.6 | 94.9 | 106 | 93.7 | 94.5 | 92.1 | 85.3 | 110 | 98.4 | 99.6 | 99.7 | 97 | 102 | 89.1 | 95.3 | 92.7 | 102 | 107 | 98.5 | 94.4 | 103 | 106 | 99.3 | > 10 | > 10 | > 10 | > 10 | > 10 |
| CC/C(=C(/c1ccc(/C=C/C(=O)O)cc1)c1ccc2[nH]ncc2c1)c1ccc(F)cc1Cl [GDC-0810] | 0 | 0 | 0 | 0 | 0 | 87.5 | 109 | 92.2 | 94.1 | 90.6 | 92.9 | 102 | 96.4 | 100 | 90.6 | 105 | 110 | 84.4 | 108 | 105 | 101 | 102 | 98.7 | 104 | 100 | 102 | 94.6 | 95 | 102 | 92.7 | > 10 | > 10 | > 10 | > 10 | > 10 |
| C=CCNC1=C2C[C@@H](C)C[C@H](OC)[C@H](O)[C@@H](C)/C=C(\C)[C@H](OC(N)=O)[C@@H](OC)/C=C\C=C(/C)C(=O)NC(=CC1=O)C2=O [tanespimycin] | 33.3 | 9.8 | 13.5 | 21 | 7.7 | 113 | 80.2 | 1.9 | 1.3 | 2.2 | 108 | 100 | 104 | 51.4 | 26.5 | 108 | 105 | 83.3 | 40.2 | 38.2 | 101 | 102 | 73.2 | 4.8 | 1.8 | 93.6 | 98.8 | 101 | 71.8 | 29.2 | 0.0174 | 0.768 | 0.161 | 0.164 | 1.18 |
| O=C(O)c1ccc(N2C(=O)/C(=C/c3ccc(-c4ccc([N+](=O)[O-])cc4)o3)C=C2c2ccccc2)cc1 [4E1RCat] | 0 | 0 | 0 | 0 | 0.2 | 104 | 108 | 91.4 | 102 | 88.7 | 98.1 | 100 | 99 | 98.7 | 99.3 | 93.1 | 105 | 95.2 | 87.3 | 100 | 98.4 | 98.1 | 102 | 94.7 | 92.5 | 97.3 | 97.1 | 98.2 | 96.4 | 87.5 | > 10 | > 10 | > 10 | > 10 | > 10 |
| Cc1nn(C)c2c1C(c1cccc(Cl)c1)=NCCN2 [zometapine] | 0 | 0 | 0 | 0 | 0 | 93.3 | 105 | 99.9 | 106 | 89 | 104 | 105 | 98 | 97.8 | 95.1 | 102 | 104 | 99.8 | 101 | 98.2 | 95.6 | 105 | 98.4 | 102 | 96.9 | 95.7 | 86.7 | 82.4 | 117 | 105 | > 10 | > 10 | > 10 | > 10 | > 10 |
| N=C(N)S/C=C\C(=O)O [ZAPA] | 0 | 0 | 0 | 0 | 0 | 96 | 95.5 | 104 | 89.3 | 102 | 98.3 | 97.1 | 94.8 | 95 | 106 | 83 | 103 | 101 | 103 | 95.5 | 92.8 | 97.7 | 95.6 | 100 | 101 | 91.1 | 96 | 91.3 | 104 | 106 | > 10 | > 10 | > 10 | > 10 | > 10 |
| CC(=O)O[C@@H]1CC[C@@]2(C)[C@@H](CC[C@]3(C)[C@@H]2C(=O)C=C2[C@@H]4[C@@H](C)[C@H](C)CC[C@]4(C)CC[C@]23C)[C@@]1(C)C(=O)O [acetyl-11-keto-beta-boswellic-acid] | 0 | 0 | 0 | 0 | 0 | 109 ± 7.6 | 94 ± 7.4 | 106.6 ± 0.85 | 103 ± 5.4 | 101 ± 8 | 104 ± 7.3 | 94.4 ± 5 | 99.7 ± 8 | 102 ± 3.4 | 104 ± 3.3 | 93.5 ± 0.71 | 108 ± 3.8 | 102 ± 7.1 | 101 ± 22 | 96.5 ± 3.5 | 101 ± 2.5 | 98.5 ± 2.3 | 98.7 ± 3.1 | 102 ± 4.6 | 99.5 ± 1.1 | 94 ± 1.4 | 109 ± 2.7 | 87.8 ± 15 | 98.1 ± 18 | 96.5 ± 4.7 | > 10 | > 10 | > 10 | > 10 | > 10 |
